Experimental data taken from ChEMBL document CHEMBL5465560, “Selectivity Literature for EUbOPEN Chemogenomic Library” (2024).
Blank lines part the entries; values can stand above or below the compound they belong to.

What was measured:
[1] = molecular target: STE20-like serine/threonine-protein kinase (Homo sapiens, UniProt Q9H2G2); assay: Selectivity interaction (ActivX KiNativ screen (kinase selectivity in THP-1 cell lysates)) EUB0000639a SLK; assay type: subcellular; details: lysate, at 1 µM
STE20-like serine/threonine-protein kinase, sequence (Q9H2G2 whole entry, looked up): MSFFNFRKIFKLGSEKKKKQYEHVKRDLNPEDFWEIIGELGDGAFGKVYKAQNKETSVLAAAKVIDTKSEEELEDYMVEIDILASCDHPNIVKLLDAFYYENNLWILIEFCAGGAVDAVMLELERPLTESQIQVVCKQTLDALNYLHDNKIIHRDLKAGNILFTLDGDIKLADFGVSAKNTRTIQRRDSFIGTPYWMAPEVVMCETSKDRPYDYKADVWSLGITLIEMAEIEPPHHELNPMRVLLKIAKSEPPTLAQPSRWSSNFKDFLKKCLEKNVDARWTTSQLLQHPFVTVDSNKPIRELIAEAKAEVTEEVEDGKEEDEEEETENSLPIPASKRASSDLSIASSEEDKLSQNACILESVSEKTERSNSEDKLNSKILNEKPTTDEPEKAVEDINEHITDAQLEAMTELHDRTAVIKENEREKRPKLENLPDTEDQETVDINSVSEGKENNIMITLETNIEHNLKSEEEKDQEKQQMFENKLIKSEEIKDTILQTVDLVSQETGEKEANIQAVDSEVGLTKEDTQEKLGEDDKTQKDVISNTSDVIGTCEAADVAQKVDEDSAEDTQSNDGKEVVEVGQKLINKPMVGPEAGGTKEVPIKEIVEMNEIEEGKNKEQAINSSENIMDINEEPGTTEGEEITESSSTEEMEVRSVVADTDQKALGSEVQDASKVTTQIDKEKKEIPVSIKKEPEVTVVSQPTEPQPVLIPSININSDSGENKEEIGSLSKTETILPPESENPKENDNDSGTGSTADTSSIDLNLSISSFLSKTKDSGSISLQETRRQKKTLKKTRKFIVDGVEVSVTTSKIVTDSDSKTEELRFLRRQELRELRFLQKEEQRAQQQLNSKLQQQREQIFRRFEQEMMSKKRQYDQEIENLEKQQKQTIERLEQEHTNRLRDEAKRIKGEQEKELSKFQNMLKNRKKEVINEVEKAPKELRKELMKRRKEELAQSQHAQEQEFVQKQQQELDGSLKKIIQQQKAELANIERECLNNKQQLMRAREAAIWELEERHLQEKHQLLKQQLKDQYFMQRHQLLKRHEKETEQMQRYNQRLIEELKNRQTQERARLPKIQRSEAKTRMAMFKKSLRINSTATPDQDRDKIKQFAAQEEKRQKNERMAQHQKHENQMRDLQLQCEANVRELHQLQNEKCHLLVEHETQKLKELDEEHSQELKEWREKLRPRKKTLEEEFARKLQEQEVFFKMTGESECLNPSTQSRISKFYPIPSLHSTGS

[2] = molecular target: T1, Protein arginine N-methyltransferase 9 (Homo sapiens) (UniProt Q6P2P2); assay: Selectivity interaction (Transferase panel (protein, RNA, and DNA methyltransferases. and EP300 (acetyltransferase))) EUB0000270b PRMT9
T1 sequence (whole entry): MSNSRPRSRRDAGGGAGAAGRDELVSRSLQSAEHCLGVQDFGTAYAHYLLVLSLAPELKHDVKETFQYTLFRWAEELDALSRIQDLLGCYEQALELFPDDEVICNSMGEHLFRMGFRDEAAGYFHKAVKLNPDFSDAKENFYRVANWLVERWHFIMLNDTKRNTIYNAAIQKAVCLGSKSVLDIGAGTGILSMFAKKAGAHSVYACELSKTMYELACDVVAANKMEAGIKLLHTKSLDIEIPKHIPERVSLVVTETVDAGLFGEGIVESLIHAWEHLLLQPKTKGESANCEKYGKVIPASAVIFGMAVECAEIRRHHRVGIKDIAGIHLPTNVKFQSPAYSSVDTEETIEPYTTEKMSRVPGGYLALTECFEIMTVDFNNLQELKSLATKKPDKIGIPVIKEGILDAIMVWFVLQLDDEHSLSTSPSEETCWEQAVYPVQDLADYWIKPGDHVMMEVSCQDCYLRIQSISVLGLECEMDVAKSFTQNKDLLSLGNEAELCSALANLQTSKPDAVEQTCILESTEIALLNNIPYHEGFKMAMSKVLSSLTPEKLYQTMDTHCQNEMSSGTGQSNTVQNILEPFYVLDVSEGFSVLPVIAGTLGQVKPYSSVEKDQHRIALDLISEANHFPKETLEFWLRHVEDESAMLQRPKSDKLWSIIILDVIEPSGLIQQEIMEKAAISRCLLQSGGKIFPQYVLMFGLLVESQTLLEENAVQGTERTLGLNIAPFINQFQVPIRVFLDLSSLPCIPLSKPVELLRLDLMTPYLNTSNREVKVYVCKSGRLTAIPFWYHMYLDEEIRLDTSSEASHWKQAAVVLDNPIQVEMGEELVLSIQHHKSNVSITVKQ

[3] = molecular target: Histone-lysine N-methyltransferase PRDM9 (Homo sapiens) (UniProt Q9NQV7); assay: Selectivity interaction (Methyltransferase screen (radiometric assays, panel of 8 PRMTs, 21 protein lysine methyltransferases, 3 DNA methyltransferases, and one RNA methyltransferase)) EUB0000272b PRDM9
Histone-lysine N-methyltransferase PRDM9 (Homo sapiens), sequence (Q9NQV7 whole entry): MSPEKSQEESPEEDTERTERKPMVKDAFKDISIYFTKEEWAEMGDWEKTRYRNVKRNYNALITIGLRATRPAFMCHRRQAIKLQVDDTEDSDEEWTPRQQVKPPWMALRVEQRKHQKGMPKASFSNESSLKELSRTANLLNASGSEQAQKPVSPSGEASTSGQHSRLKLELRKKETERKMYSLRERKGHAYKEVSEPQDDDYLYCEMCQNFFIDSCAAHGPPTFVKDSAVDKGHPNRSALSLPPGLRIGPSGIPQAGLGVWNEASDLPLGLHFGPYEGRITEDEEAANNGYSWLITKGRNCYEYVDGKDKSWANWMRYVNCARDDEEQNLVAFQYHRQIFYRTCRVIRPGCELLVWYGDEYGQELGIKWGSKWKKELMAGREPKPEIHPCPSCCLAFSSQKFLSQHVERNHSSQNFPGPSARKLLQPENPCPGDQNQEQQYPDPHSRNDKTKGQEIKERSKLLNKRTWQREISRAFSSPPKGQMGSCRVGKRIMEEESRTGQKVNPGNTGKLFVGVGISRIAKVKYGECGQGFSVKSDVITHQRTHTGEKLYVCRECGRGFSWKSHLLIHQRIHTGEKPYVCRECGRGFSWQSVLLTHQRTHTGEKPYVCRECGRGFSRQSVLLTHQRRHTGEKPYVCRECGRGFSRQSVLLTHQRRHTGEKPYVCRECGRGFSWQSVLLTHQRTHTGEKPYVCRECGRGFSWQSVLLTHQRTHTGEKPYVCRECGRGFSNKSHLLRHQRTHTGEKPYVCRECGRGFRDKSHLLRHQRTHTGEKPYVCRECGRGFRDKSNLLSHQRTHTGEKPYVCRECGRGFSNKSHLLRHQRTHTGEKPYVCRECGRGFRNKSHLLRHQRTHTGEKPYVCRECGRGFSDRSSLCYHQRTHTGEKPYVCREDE

[4] = molecular target: T2, Serine/threonine-protein kinase haspin (Homo sapiens) (UniProt Q8TF76); assay: Selectivity interaction (ProQinase) EUB0000171b GSG2
T2 sequence (whole entry): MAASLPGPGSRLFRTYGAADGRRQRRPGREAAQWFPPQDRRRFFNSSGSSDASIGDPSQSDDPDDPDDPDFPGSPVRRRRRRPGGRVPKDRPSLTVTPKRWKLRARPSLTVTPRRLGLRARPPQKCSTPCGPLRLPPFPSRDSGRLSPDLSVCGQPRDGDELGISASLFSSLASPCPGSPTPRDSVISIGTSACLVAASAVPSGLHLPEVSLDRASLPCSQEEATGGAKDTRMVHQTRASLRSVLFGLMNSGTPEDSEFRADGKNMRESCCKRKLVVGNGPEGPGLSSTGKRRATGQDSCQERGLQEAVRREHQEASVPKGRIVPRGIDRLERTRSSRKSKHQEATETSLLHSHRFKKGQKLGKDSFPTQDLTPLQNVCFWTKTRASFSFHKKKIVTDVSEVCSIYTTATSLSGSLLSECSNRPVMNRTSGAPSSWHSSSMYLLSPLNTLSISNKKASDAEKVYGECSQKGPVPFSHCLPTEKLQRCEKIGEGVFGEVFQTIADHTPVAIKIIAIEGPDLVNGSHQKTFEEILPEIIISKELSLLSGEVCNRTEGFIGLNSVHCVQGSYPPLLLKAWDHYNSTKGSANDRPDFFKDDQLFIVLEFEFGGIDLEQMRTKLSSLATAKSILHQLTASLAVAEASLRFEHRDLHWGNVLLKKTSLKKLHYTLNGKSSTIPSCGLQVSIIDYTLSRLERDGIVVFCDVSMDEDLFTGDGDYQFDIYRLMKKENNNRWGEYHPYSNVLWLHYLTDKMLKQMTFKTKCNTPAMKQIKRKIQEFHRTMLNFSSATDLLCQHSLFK

[5] = molecular target: T3, MAP/microtubule affinity-regulating kinase 4 (Homo sapiens) (UniProt Q96L34); assay: Selectivity interaction (KinomeScan (DiscoverX)) EUB0000666a MARK4; details: at 10 µM
T3 sequence (whole entry): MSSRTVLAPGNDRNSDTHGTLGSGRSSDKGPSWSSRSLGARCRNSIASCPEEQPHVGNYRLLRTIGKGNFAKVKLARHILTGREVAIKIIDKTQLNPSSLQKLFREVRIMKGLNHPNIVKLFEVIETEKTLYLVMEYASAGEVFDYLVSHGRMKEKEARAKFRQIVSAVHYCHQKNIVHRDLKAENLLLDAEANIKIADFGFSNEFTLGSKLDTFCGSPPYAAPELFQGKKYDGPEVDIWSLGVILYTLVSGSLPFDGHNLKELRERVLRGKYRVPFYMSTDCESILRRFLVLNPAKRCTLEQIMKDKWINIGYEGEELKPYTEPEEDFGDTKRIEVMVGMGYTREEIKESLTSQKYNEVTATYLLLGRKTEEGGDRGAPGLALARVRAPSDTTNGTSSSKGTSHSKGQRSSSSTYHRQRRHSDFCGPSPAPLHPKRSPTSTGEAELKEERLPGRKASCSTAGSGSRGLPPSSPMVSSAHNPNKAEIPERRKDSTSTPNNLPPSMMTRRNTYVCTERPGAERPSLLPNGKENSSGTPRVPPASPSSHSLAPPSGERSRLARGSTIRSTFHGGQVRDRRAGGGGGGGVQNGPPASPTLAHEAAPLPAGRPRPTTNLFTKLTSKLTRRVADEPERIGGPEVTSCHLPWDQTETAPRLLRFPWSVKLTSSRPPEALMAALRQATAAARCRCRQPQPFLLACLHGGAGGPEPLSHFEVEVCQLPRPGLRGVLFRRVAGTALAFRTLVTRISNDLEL

[6] = molecular target: Serine/threonine-protein kinase Chk2 (Homo sapiens) (UniProt O96017); assay: Selectivity interaction (KinomeScan (DiscoverX)) EUB0000666a CHEK2; details: at 10 µM
Serine/threonine-protein kinase Chk2 (Homo sapiens), sequence (O96017 whole entry): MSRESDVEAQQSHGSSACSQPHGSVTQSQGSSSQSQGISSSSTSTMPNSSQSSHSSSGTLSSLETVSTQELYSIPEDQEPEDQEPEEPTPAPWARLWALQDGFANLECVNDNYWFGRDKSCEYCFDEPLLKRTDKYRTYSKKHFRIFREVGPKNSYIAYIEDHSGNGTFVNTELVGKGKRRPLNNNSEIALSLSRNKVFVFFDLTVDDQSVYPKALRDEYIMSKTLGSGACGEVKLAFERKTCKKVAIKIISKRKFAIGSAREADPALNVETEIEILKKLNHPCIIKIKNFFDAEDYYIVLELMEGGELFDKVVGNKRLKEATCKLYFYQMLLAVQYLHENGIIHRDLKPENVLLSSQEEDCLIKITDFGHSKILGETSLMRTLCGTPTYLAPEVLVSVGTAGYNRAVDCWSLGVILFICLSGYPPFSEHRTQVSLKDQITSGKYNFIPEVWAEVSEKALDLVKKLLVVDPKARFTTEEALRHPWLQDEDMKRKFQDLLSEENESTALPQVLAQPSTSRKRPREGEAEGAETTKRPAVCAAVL

- % of inhibition [1]: -14.8%
Structure (SMILES): CC[C@@H]1[C@H](F)C(=O)N[C@@H]1COc1nccc2cc(C(N)=O)c(OC)cc12 [ZIMLOVISERTIB]

- % activity ([2]; at 1 µM): > 90%
- % activity ([2]; at 10 µM): > 80%
Structure (SMILES): Cc1cc(CN)cc(C)c1-c1ncn(C)c1-c1cncn1C

- % of activity ([3]; at 1 µM): 98.7%
- % of activity ([3]; at 10 µM): 96.3%
Structure (SMILES): Cc1cc(C)cc([C@H]2c3cc(C)ccc3NC(=O)CN2C(=O)c2ccc(Br)s2)c1

- % of control ([4]; at 1 µM): 84%
- % of control ([4]; at 5 µM): 56%
Structure (SMILES): C=CC(=O)Nc1cccc(C(=O)Nc2ccc(Nc3cc(-c4[nH]c(SC)nc4C)ccn3)cc2)c1

Structure (SMILES): O=C(NOC[C@H](O)CO)c1ccc(F)c(F)c1Nc1ccc(I)cc1F
- % of control [5]: 100%
- % of control [6]: 86%
